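Five compound concentrations were applied to cells in 96-well plates for 48 hours; endpoints were derived by simple linear interpolation of the resulting dose-response curve. TGI is the concentration that stops growth completely.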
Experiments:
Assay in all cases: NCI anticancer screen, dose series, 48 h
786-0 renal = test system: 786-0 renal
A498 renal = test system: A498 renal
A549 NSCLC = test system: A549 NSCLC
ACHN renal = test system: ACHN renal
BT-549 breast = test system: BT-549 breast
CAKI-1 renal = test system: CAKI-1 renal
CCRF-CEM leukemia = test system: CCRF-CEM leukemia
COLO 205 colon = test system: COLO 205 colon
EKVX NSCLC = test system: EKVX NSCLC
HCC-2998 colon = test system: HCC-2998 colon
HCT-116 colon = test system: HCT-116 colon
HCT-15 colon = test system: HCT-15 colon
HL-60(TB) leukemia = test system: HL-60(TB) leukemia
HOP-62 NSCLC = test system: HOP-62 NSCLC
HOP-92 NSCLC = test system: HOP-92 NSCLC
HS 578T breast = test system: HS 578T breast
HT29 colon = test system: HT29 colon
IGROV1 ovarian = test system: IGROV1 ovarian
K-562 leukemia = test system: K-562 leukemia
KM12 colon = test system: KM12 colon
LOX IMVI melanoma = test system: LOX IMVI melanoma
M14 melanoma = test system: M14 melanoma
MALME-3M melanoma = test system: MALME-3M melanoma
MCF7 breast = test system: MCF7 breast
MDA-MB-231 breast = test system: MDA-MB-231 breast
MDA-MB-435 = test system: MDA-MB-435
MDA-N = test system: MDA-N
MOLT-4 leukemia = test system: MOLT-4 leukemia
NCI-H226 lung = test system: NCI-H226 lung
NCI-H23 lung = test system: NCI-H23 lung
NCI-H460 lung = test system: NCI-H460 lung
NCI-H522 lung = test system: NCI-H522 lung
NCI/ADR-RES ovarian = test system: NCI/ADR-RES ovarian
OVCAR-3 ovarian = test system: OVCAR-3 ovarian
OVCAR-4 ovarian = test system: OVCAR-4 ovarian
OVCAR-5 ovarian = test system: OVCAR-5 ovarian
OVCAR-8 ovarian = test system: OVCAR-8 ovarian
PC-3 prostate = test system: PC-3 prostate
RPMI-8226 leukemia = test system: RPMI-8226 leukemia
SF-268 CNS = test system: SF-268 CNS
SF-295 CNS = test system: SF-295 CNS
SK-MEL-2 melanoma = test system: SK-MEL-2 melanoma
SK-MEL-28 melanoma = test system: SK-MEL-28 melanoma
SK-MEL-5 melanoma = test system: SK-MEL-5 melanoma
SK-OV-3 ovarian = test system: SK-OV-3 ovarian
SN12C renal = test system: SN12C renal
SNB-19 CNS = test system: SNB-19 CNS
SR leukemia = test system: SR leukemia
SW-620 colon = test system: SW-620 colon
T-47D breast = test system: T-47D breast
TK-10 renal = test system: TK-10 renal
U251 CNS = test system: U251 CNS
UACC-257 melanoma = test system: UACC-257 melanoma
UACC-62 melanoma = test system: UACC-62 melanoma
UO-31 renal = test system: UO-31 renal
DU-145 prostate = test system: DU-145 prostate
RXF 393 renal = test system: RXF 393 renal
SF-539 CNS = test system: SF-539 CNS
SNB-75 CNS = test system: SNB-75 CNS

`COC1=C[C@]2(CCC(=O)O2)[C@@H]2Cc3ccccc3[C@H](O)[C@@H]2C1=O` was tested, and the TGI (786-0 renal) was > 100 µM, the TGI (A498 renal) was > 100 µM and the TGI (A549 NSCLC) was > 100 µM. For the same compound, the TGI (ACHN renal) was > 100 µM, the TGI (BT-549 breast) was > 100 µM and the TGI (CAKI-1 renal) was > 100 µM. For the same compound, the TGI (CCRF-CEM leukemia) was 35.8 µM, the TGI (COLO 205 colon) was > 100 µM and the TGI (EKVX NSCLC) was > 100 µM. For the same compound, the TGI (HCC-2998 colon) was > 100 µM, the TGI (HCT-116 colon) was > 100 µM and the TGI (HCT-15 colon) was > 100 µM. The TGI (HL-60(TB) leukemia) was 77.6 µM, the TGI (HOP-62 NSCLC) was > 100 µM and the TGI (HOP-92 NSCLC) was > 100 µM. The TGI (HS 578T breast) was > 100 µM, the TGI (HT29 colon) was > 100 µM and the TGI (IGROV1 ovarian) was > 100 µM. The TGI (K-562 leukemia) was > 100 µM, the TGI (KM12 colon) was > 100 µM and the TGI (LOX IMVI melanoma) was 87.3 µM. For the same compound, the TGI (M14 melanoma) was > 100 µM, the TGI (MALME-3M melanoma) was 50.2 µM and the TGI (MCF7 breast) was > 100 µM. The TGI (MDA-MB-231 breast) was > 100 µM, the TGI (MDA-MB-435) was 31 µM and the TGI (MDA-N) was 30.1 µM. The TGI (MOLT-4 leukemia) was 38.9 µM, the TGI (NCI-H226 lung) was > 100 µM and the TGI (NCI-H23 lung) was > 100 µM. The TGI (NCI-H460 lung) was > 100 µM, the TGI (NCI-H522 lung) was 44.4 µM and the TGI (NCI/ADR-RES ovarian) was > 100 µM. For the same compound, the TGI (OVCAR-3 ovarian) was > 100 µM, the TGI (OVCAR-4 ovarian) was > 100 µM and the TGI (OVCAR-5 ovarian) was > 100 µM. For the same compound, the TGI (OVCAR-8 ovarian) was > 100 µM, the TGI (PC-3 prostate) was > 100 µM and the TGI (RPMI-8226 leukemia) was 38.5 µM. The TGI (SF-268 CNS) was > 100 µM, the TGI (SF-295 CNS) was > 100 µM and the TGI (SK-MEL-2 melanoma) was 96.2 µM. For the same compound, the TGI (SK-MEL-28 melanoma) was > 100 µM, the TGI (SK-MEL-5 melanoma) was 33.7 µM and the TGI (SK-OV-3 ovarian) was > 100 µM. The TGI (SN12C renal) was > 100 µM, the TGI (SNB-19 CNS) was > 100 µM and the TGI (SR leukemia) was 41.4 µM. The TGI (SW-620 colon) was 88.8 µM, the TGI (T-47D breast) was 37.7 µM and the TGI (TK-10 renal) was > 100 µM. It also gave a TGI (U251 CNS) of 79.6 µM, a TGI (UACC-257 melanoma) of 62 µM and a TGI (UACC-62 melanoma) of 65.1 µM. The TGI (UO-31 renal) was > 100 µM.

In the case of `O=c1[nH]c2ccccc2c(O)c1Cc1ccccc1`, the TGI (786-0 renal) is reported as > 100 µM, the TGI (A498 renal) is reported as > 100 µM and the TGI (A549 NSCLC) is reported as > 100 µM. For the same compound, the TGI (ACHN renal) was > 100 µM, the TGI (BT-549 breast) was > 100 µM and the TGI (CAKI-1 renal) was > 100 µM. For the same compound, the TGI (CCRF-CEM leukemia) was > 100 µM, the TGI (COLO 205 colon) was > 100 µM and the TGI (DU-145 prostate) was > 100 µM. The TGI (EKVX NSCLC) was > 100 µM, the TGI (HCC-2998 colon) was > 100 µM and the TGI (HCT-116 colon) was > 100 µM. For the same compound, the TGI (HCT-15 colon) was > 100 µM, the TGI (HL-60(TB) leukemia) was > 100 µM and the TGI (HOP-62 NSCLC) was > 100 µM. For the same compound, the TGI (HOP-92 NSCLC) was > 100 µM, the TGI (HS 578T breast) was > 100 µM and the TGI (HT29 colon) was > 100 µM. For the same compound, the TGI (IGROV1 ovarian) was > 100 µM, the TGI (K-562 leukemia) was > 100 µM and the TGI (KM12 colon) was > 100 µM. The TGI (LOX IMVI melanoma) was > 100 µM, the TGI (MALME-3M melanoma) was > 100 µM and the TGI (MCF7 breast) was > 100 µM. For the same compound, the TGI (MDA-MB-231 breast) was > 100 µM, the TGI (MDA-MB-435) was > 100 µM and the TGI (MDA-N) was > 100 µM. For the same compound, the TGI (MOLT-4 leukemia) was > 100 µM, the TGI (NCI-H226 lung) was > 100 µM and the TGI (NCI-H23 lung) was > 100 µM. The TGI (NCI-H460 lung) was > 100 µM, the TGI (NCI-H522 lung) was > 100 µM and the TGI (NCI/ADR-RES ovarian) was > 100 µM. For the same compound, the TGI (OVCAR-3 ovarian) was > 100 µM, the TGI (OVCAR-4 ovarian) was > 100 µM and the TGI (OVCAR-5 ovarian) was > 100 µM. The TGI (OVCAR-8 ovarian) was > 100 µM, the TGI (PC-3 prostate) was > 100 µM and the TGI (RPMI-8226 leukemia) was > 100 µM. For the same compound, the TGI (RXF 393 renal) was > 100 µM, the TGI (SF-268 CNS) was > 100 µM and the TGI (SF-295 CNS) was > 100 µM. The TGI (SF-539 CNS) was > 100 µM, the TGI (SK-MEL-28 melanoma) was > 100 µM and the TGI (SK-MEL-5 melanoma) was > 100 µM. For the same compound, the TGI (SN12C renal) was > 100 µM, the TGI (SNB-19 CNS) was > 100 µM and the TGI (SNB-75 CNS) was > 100 µM. For the same compound, the TGI (SR leukemia) was > 100 µM, the TGI (SW-620 colon) was > 100 µM and the TGI (TK-10 renal) was > 100 µM. For the same compound, the TGI (U251 CNS) was > 100 µM and the TGI (UACC-257 melanoma) was > 100 µM.

For `N#Cc1c(N)oc(-c2ccc([N+](=O)[O-])cc2)c1C#N`, the TGI (786-0 renal) was > 100 µM, the TGI (A498 renal) was 53.5 µM and the TGI (A549 NSCLC) was > 100 µM. The TGI (ACHN renal) was 72.4 µM, the TGI (CAKI-1 renal) was 54.7 µM and the TGI (CCRF-CEM leukemia) was > 100 µM. The TGI (COLO 205 colon) was > 100 µM, the TGI (DU-145 prostate) was 59.3 µM and the TGI (EKVX NSCLC) was 59.6 µM. The TGI (HCC-2998 colon) was > 100 µM, the TGI (HCT-116 colon) was > 100 µM and the TGI (HCT-15 colon) was 53.1 µM. For the same compound, the TGI (HL-60(TB) leukemia) was > 100 µM, the TGI (HOP-62 NSCLC) was 73.5 µM and the TGI (HOP-92 NSCLC) was 62.9 µM. The TGI (HS 578T breast) was 82.8 µM, the TGI (HT29 colon) was > 100 µM and the TGI (IGROV1 ovarian) was 42.4 µM. For the same compound, the TGI (KM12 colon) was > 100 µM, the TGI (LOX IMVI melanoma) was > 100 µM and the TGI (M14 melanoma) was > 100 µM. For the same compound, the TGI (MALME-3M melanoma) was 95.9 µM, the TGI (MCF7 breast) was > 100 µM and the TGI (MDA-MB-231 breast) was 64.3 µM. For the same compound, the TGI (MDA-MB-435) was > 100 µM, the TGI (MDA-N) was > 100 µM and the TGI (NCI-H226 lung) was 46.5 µM. The TGI (NCI-H23 lung) was 57.2 µM, the TGI (NCI-H522 lung) was 60.3 µM and the TGI (NCI/ADR-RES ovarian) was 44 µM. For the same compound, the TGI (OVCAR-5 ovarian) was > 100 µM, the TGI (OVCAR-8 ovarian) was 52.2 µM and the TGI (PC-3 prostate) was 56.9 µM. For the same compound, the TGI (RPMI-8226 leukemia) was > 100 µM, the TGI (RXF 393 renal) was > 100 µM and the TGI (SF-268 CNS) was 58.9 µM. The TGI (SF-295 CNS) was 55.3 µM, the TGI (SF-539 CNS) was 48.3 µM and the TGI (SK-MEL-2 melanoma) was 64.2 µM. The TGI (SK-MEL-28 melanoma) was > 100 µM, the TGI (SK-MEL-5 melanoma) was 36.4 µM and the TGI (SK-OV-3 ovarian) was > 100 µM. For the same compound, the TGI (SN12C renal) was 52.1 µM, the TGI (SNB-19 CNS) was 91.6 µM and the TGI (SNB-75 CNS) was 47.1 µM. The TGI (SR leukemia) was > 100 µM, the TGI (SW-620 colon) was > 100 µM and the TGI (T-47D breast) was 76.2 µM. The TGI (TK-10 renal) was 76.8 µM, the TGI (U251 CNS) was > 100 µM and the TGI (UACC-257 melanoma) was 62 µM. For the same compound, the TGI (UACC-62 melanoma) was > 100 µM and the TGI (UO-31 renal) was 42.4 µM.

Reference: PubChem BioAssay (NCI)
